Laboratory results as given in patent US4085134A, “Amino-phosphonic-sulfonic acids” (Petrolite Corporation, priority 1974, dated 1978).
Where a name gives a salt, the structure may show the parent alone.

How the values were obtained:
[1] = Calcium Scale Inhibition Test; details: 180° F, samples at 2 and 4 hour periods
Method: Calcium Scale Inhibition Test
The procedure utilized to determine the effectiveness of scale inhibitors in regard to calcium scale is as follows:
Several 50 ml. samples of a 0.04 sodium bicarbonate solution are placed in 100 ml. bottles. To these solutions is added the inhibitor in various known concentrations. 50 ml. samples of a 0.02 M CaCl2 solution are then added.
A total hardness determination is then made on the 50-50 mixture utilizing the well known Schwarzenbach titration. The samples are placed in a water bath and heated at 180° F. 10 ml. samples are taken from each bottle at 2 and 4 hour periods. These samples are filtered through millipore filters and the total hardness of the filtrates are determined by titration.

[2] = powerful sequesterants; background statement; cited from earlier work

SMILES	% Inhibition (calcium scale inhibition) ([1]; 50 ppm) [%]	% Inhibition (calcium scale inhibition) ([1]; 100 ppm) [%]	% Inhibition (calcium scale inhibition) ([1]; 10 ppm) [%]	further results
O=P(O)(O)CN(CCCS(=O)(=O)O)CCN(CCCS(=O)(=O)O)CP(=O)(O)O [Example 11]	95	100	–	–
O=C(O)CN(CCN(CC(=O)O)CC(=O)O)CC(=O)O [ethylenediamine tetracetic acid salts, ethylenediamine tetracetic acid]	–	–	–	threshold activities [2]: no threshold activities
O=P(O)(O)CN(CCCS(=O)(=O)O)CCN(CCN(CP(=O)(O)O)CP(=O)(O)O)CP(=O)(O)O [Example 14]	–	100	66	–
O=P(O)(O)CN(CCCS(=O)(=O)O)C1CCCCC1 [Example 1]	–	86	–	–
O=P(O)(O)CN(CCCS(=O)(=O)O)CCN(CCN(CCCS(=O)(=O)O)CP(=O)(O)O)CP(=O)(O)O [Example 15]	95	–	42	–
CCCCCCCCN(CCCS(=O)(=O)O)CP(=O)(O)O [Example 4]	–	24	–	% Inhibition (calcium scale inhibition) ([1]; 200 ppm): 60%
